Laboratory results reported in ChEMBL document CHEMBL5143757, “Combination of Cyclin-Dependent Kinase 4 Inhibitors and Androgen Receptor Inhibitors as Cancer Therapy” (2022).

Key:
Format in all cases: functional
Conditions in all cases: 96 h, read-out: GI
[1] = Growth inhibition of human LNCaP/AR cells assessed as decrease in tumor spheroid growth at 300 nM with media replenishment twice per week along with 3 to 4-day interval compound in presence of enzalutamide relative to control
[2] = Growth inhibition of human LNCaP/AR cells assessed as decrease in tumor spheroid growth at 300 nM with media replenishment twice per week along with 3 to 4-day interval compound relative to control
[3] = Growth inhibition of human LNCaP/AR cells assessed as decrease in tumor spheroid growth at 100 nM with media replenishment twice per week along with 3 to 4-day interval compound relative to control
[4] = Growth inhibition of human LNCaP/AR cells assessed as decrease in tumor spheroid growth at 1000 nM with media replenishment twice per week along with 3 to 4-day interval compound relative to control
[5] = Growth inhibition of human LNCaP/AR cells assessed as decrease in tumor spheroid growth at 1000 nM with media replenishment twice per week along with 3 to 4-day interval compound in presence of Compound A relative to control
[6] = Growth inhibition of human LNCaP/AR cells assessed as decrease in tumor spheroid growth at 1000 nM with media replenishment twice per week along with 3 to 4-day interval compound in presence of palbociclib relative to control
[7] = Growth inhibition of human LNCaP/AR cells assessed as decrease in tumor spheroid growth at 30 nM with media replenishment twice per week along with 3 to 4-day interval compound relative to control
[8] = Growth inhibition of human LNCaP/AR cells assessed as decrease in tumor spheroid growth at 30 nM with media replenishment twice per week along with 3 to 4-day interval compound in presence of enzalutamide relative to control

| SMILES | inhibition of growth at 0.3 µM [1] [%] | inhibition of growth at 0.3 µM [2] [%] | inhibition of growth at 0.1 µM [3] [%] | inhibition of growth at 1 µM [4] [%] | inhibition of growth at 1 µM [5] [%] | inhibition of growth at 1 µM [6] [%] | inhibition of growth at 0.03 µM [7] [%] | inhibition of growth at 0.03 µM [8] [%] |
| --- | --- | --- | --- | --- | --- | --- | --- | --- |
| CC(C)n1c(C(C)(C)O)nc2c(F)cc(-c3nc(N[C@@H]4CCOC[C@H]4O)ncc3Cl)cc21 [ATIRMOCICLIB] | 70 | 38 | 27 | 53 | – | – | – | – |
| CNC(=O)c1ccc(N2C(=S)N(c3ccc(C#N)c(C(F)(F)F)c3)C(=O)C2(C)C)cc1F [ENZALUTAMIDE] | – | – | – | 46 | 70 | 47 | – | – |
| CC(=O)c1c(C)c2cnc(Nc3ccc(N4CCNCC4)cn3)nc2n(C2CCCC2)c1=O [PALBOCICLIB] | – | – | 24 | – | – | – | 5 | 47 |
